Source: patent US10934297B2, “5-heteroaryl substituted indazole-3-carboxamides and preparation and use thereof” (Samumed, LLC, priority 2018, dated 2021)

What was measured:
[1] = tested on: Wnt activity (Sp5-Luc reporter in SW480 cells); assay: Screening assay for Wnt activity: Sp5-Luc reporter gene assay in SW480 colon carcinoma cells; assay type: cell-based, human; conditions: Homo sapiens, 36 to 48 hours
In short: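 SW480 colon carcinoma cells stably carrying a lentiviral luciferase reporter driven by an Sp5 promoter with eight TCF/LEF sites, plated at 4,000 cells/well in DMEM with 1% FBS. Compound exposure for 36–48 h at 37 °C, then luminescence read. Signals normalized to DMSO; EC50 from four-parameter nonlinear fit.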

DYRK1A kinase = DYRK1A kinase (Homo sapiens (Human), UniProt Q13627); assay: DYRK1A kinase assay (Ser/Thr 18 peptide Z-lyte FRET); assay type: biochemical; conditions: read-out: EC50 (method: IC50)
In short: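 This Z-lyte FRET assay reads the coumarin/fluorescein emission ratio. Compounds were incubated with the reaction mixture for 1 h at room temperature, followed by development reagent for a further 1 h at room temperature, in duplicate.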

GSK3β kinase = GSK3β kinase (Homo sapiens (Human), UniProt P49841); assay: GSK3β kinase assay (Ser/Thr 09 peptide Z-lyte FRET); assay type: biochemical; conditions: read-out: EC50 (method: IC50)
Chain of GSK3β kinase (P49841 whole entry): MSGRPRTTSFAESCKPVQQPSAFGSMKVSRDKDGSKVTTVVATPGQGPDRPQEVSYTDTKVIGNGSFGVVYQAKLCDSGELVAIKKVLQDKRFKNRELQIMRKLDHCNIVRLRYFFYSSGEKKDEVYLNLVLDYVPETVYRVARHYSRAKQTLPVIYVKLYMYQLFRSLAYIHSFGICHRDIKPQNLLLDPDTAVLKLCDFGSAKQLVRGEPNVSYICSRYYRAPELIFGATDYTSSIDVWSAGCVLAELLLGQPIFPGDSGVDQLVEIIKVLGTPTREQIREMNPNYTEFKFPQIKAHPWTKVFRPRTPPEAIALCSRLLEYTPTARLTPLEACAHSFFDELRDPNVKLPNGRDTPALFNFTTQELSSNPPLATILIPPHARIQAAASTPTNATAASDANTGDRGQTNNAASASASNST
In short: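 Non-radioactive Z-lyte FRET read-out, kinase activity expressed as coumarin/fluorescein emission ratio. Compounds incubated with the reaction mixture one hour at room temperature in duplicate, then development buffer added for another hour. IC50 from non-linear regression of dose-response curves.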

[2] = tested on: SW480 colon carcinoma cells; assay: Cell viability assay (CellTiter-Glo) in SW480 colon carcinoma cells; assay type: cell-based, human; conditions: Homo sapiens, 96 h, four days
In short: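 SW480 cells stably carrying an Sp5-promoter luciferase reporter were plated at 2,000 cells/well in DMEM with 1% FBS and treated with compound for four days at 37 °C. Viability was read as ATP luminescence with CellTiter-Glo after about 12 min; DMSO-treated wells served as controls.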

[3] = tested on: primary human fibroblasts derived from IPF patients (LL29 cells); assay: Inhibition of the fibrotic process: αSMA staining in TGF-β1 treated LL29 fibroblasts; assay type: cell-based; conditions: Homo sapiens, Fibroblast, 96 h; LL29 cells, TGF-β1 20 ng/mL, 4 days, % αSMA positive cells
In short: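 LL29 fibroblasts from IPF patients, in F12 medium with 1% FBS, treated with TGF-β1 plus compound; TGF-β1 with DMSO as positive control, DMSO alone as negative control. After 4 days' incubation, SYTOX green nucleic acid stain added at 1 μM final, 30 min at room temperature.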

IL-6 = IL-6 inhibition in LPS-stimulated human peripheral blood mononuclear cells (HTRF); assay type: cell-based; conditions: Homo sapiens, PBMC; for EC50: huPBMCs, LPS 50 ng/mL, 22 hours, IL-6 HTRF; for inhibition at 10 µM: read-out: percent inhibition at 10 μM
In short: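 Fresh human PBMCs at 1×10e6 cells/mL in RPMI/1% FBS were stimulated with 50 ng/mL E. coli 0111:B4 LPS added 2 h after compound, then incubated 22 h at 37° C. Secreted IL-6 was measured by HTRF (665/620 nm ratio) after 3 h at room temperature. EC50 was taken from activity normalized to DMSO-treated cells.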

[4] = tested on: primary human mesenchymal stem cells (hMSCs); assay: Tenocyte differentiation assay (SCXA-positive cells) in hMSCs; assay type: cell-based
From the text: Representative compounds were screened using primary human mesenchymal stem cells (hMSCs) to determine their ability to induce tenocyte differentiation (process by which tendon is developed).
Primary human mesenchymal stem cells (hMSCs) were purchased from Lonza (Walkersville, Md.) and expanded in Mesenchymal Stem Cell Growth Media (Lonza). Cells between passage 3 and 6 were used for the experiments.
Cells were fixed using 4% formaldehyde (Electron Microscopy Sciences), and stained with anti-Sclerasis (anti-SCXA) antibodies (Abgent, San Diego, Calif.) [Webb S., et.al., Retinoic acid receptor signaling preserves tendon stem cell characteristics and prevents spontaneous differentiation in vitro, Stem Cell Research & Therapy 2016, 7:45] overnight at 4° C. […] Number of cells positive for SCXA in each well was quantified using the CellInsight CX5. Data was normalized to the average of 12 DMSO treated wells on the same plate using Dotmatics Studies module. The normalized averages (fold change over DMSO) of 3 replicate wells for each compound concentration were calculated. Due to solubility limitations of some of the compounds, values for higher doses were manually corrected and curve fitting and EC50 determinations were performed using Dotmatics Studies.

Row | SMILES | EC50 [1] [µM] | IC50 (DYRK1A kinase) [µM] | IC50 (GSK3β kinase) [µM] | EC50 [2] [µM] | EC50 [3] [µM] | EC50 (IL-6) [µM] | inhibition at 10 µM (IL-6) [%] | EC50 ([4]; Homo sapiens, Mesenchymal stem cells, 96 h, hMSCs, 4 days, SCXA positive cells) [µM] | percent in parentheses under EC50 >100 ([4]; given for EC50 >100 μM, meaning not defined in this example)
1 | Cn1cc(-c2ccc3[nH]nc(C(=O)N[C@H]4CC[C@H](CN5CC(F)C5)CC4)c3c2)cn1 [Compound 23, N-((1R,4R)-4-((3-Fluoroazetidin-1-yl)methyl)cyclohexyl)-5-(1-methyl-1H-pyrazol-4-yl)-1H-indazole-3-carboxamide] | 0.768 | 0.001 | 0.005 | 0.409 | 0.149 | 0.345 | – | – | –
2 | Cn1cc(-c2ccc3[nH]nc(C(=O)Nc4ccc(CN5CCCC5)cc4O)c3c2)cn1 [Compound 74, N-(2-Hydroxy-4-(pyrrolidin-1-ylmethyl)phenyl)-5-(1-methyl-1H-pyrazol-4-yl)-1H-indazole-3-carboxamide] | 2.17 | 0.305 | 0.878 | > 10 | 0.035 | > 10 | 22.1 | – | –
3 | CCn1cc(-c2ccc3[nH]nc(C(=O)NC4CCN(CC(C)(C)F)CC4)c3c2)cn1 [Compound 39, 5-(1-Ethyl-1H-pyrazol-4-yl)-N-(1-(2-fluoro-2-methylpropyl)piperidin-4-yl)-1H-indazole-3-carboxamide] | 3.88 | 0.022 | 0.033 | 1.31 | 0.272 | 1.26 | – | – | –
4 | O=C(Nc1ccc(OC(F)F)nc1)c1n[nH]c2ccc(-c3cnn(CCN4CCCC4)c3)cc12 [Compound 89, N-(6-(Difluoromethoxy)pyridin-3-yl)-5-(1-(2-(pyrrolidin-1-yl)ethyl)-1H-pyrazol-4-yl)-1H-indazole-3-carboxamide] | 4.34 | 0.304 | 0.656 | 4.6 | 1.2 | 6.59 | – | – | –
5 | CC(C)CNC(=O)c1n[nH]c2ccc(-c3cn[nH]c3)cc12 [Compound 1, N-Isobutyl-5-(1H-pyrazol-4-yl)-1H-indazole-3-carboxamide] | 0.358 | 0.03 | 0.028 | 2.58 | 0.16 | 1.17 | – | – | –
6 | CN1CCC(Nc2ccc(NC(=O)c3n[nH]c4cc(F)c(-c5cnn(C)c5)cc34)cc2)CC1 [Compound 83, 6-Fluoro-5-(1-methyl-1H-pyrazol-4-yl)-N-(4-((1-methylpiperidin-4-yl)amino)phenyl)-1H-indazole-3-carboxamide] | 0.275 | 0.002 | 0.074 | 0.22 | 0.25 | 1.24 | – | – | –
7 | Cn1cc(-c2ccc3[nH]nc(C(=O)Nc4ccc(CN5CCCC5)cc4F)c3c2)cn1 [Compound 73, N-(2-Fluoro-4-(pyrrolidin-1-ylmethyl)phenyl)-5-(1-methyl-1H-pyrazol-4-yl)-1H-indazole-3-carboxamide] | 1.55 | 0.003 | 0.068 | 6.97 | 0.799 | 1.16 | – | – | –
8 | CC(C)CN1CC[C@@H](NC(=O)c2n[nH]c3ccc(-c4cnn(C)c4)cc23)[C@H](F)C1 [Compound 32, N-((3R,4R)-3-Fluoro-1-isobutylpiperidin-4-yl)-5-(1-methyl-1H-pyrazol-4-yl)-1H-indazole-3-carboxamide] | 1.83 | 0.005 | 0.031 | 1.32 | 0.372 | 1.27 | – | – | –
9 | CC(C)n1cc(-c2ccc3[nH]nc(C(=O)Nc4ccc(CN5CCCC5)cc4)c3c2)cn1 [Compound 71, 5-(1-Isopropyl-1H-pyrazol-4-yl)-N-(4-(pyrrolidin-1-ylmethyl)phenyl)-1H-indazole-3-carboxamide] | 1.49 | 0.025 | 0.169 | 1.1 | 0.322 | 4.8 | – | – | –
10 | CC(C)(F)CN1CCC(NC(=O)c2n[nH]c3ccc(-c4cn[nH]c4)cc23)CC1 [Compound 36, N-(1-(2-Fluoro-2-methylpropyl)piperidin-4-yl)-5-(1H-pyrazol-4-yl)-1H-indazole-3-carboxamide] | 0.474 | 0.007 | 0.023 | 0.691 | 0.147 | 0.348 | – | – | –
11 | Cn1ncc(-c2ccc3[nH]nc(C(=O)NC4CCN(CC(C)(C)F)CC4)c3c2)c1C(F)F [Compound 41, 5-(5-(Difluoromethyl)-1-methyl-1H-pyrazol-4-yl)-N-(1-(2-fluoro-2-methylpropyl)piperidin-4-yl)-1H-indazole-3-carboxamide] | 0.828 | 0.25 | 0.076 | 3 | 0.342 | 2.86 | – | – | –
12 | Cn1cc(-c2cc3c(C(=O)N[C@@H]4CCCC[C@H]4F)n[nH]c3cc2F)cn1 [Compound 10, 6-Fluoro-N-((1R,2R)-2-fluorocyclohexyl)-5-(1-methyl-1H-pyrazol-4-yl)-1H-indazole-3-carboxamide] | 3.41 | 0.016 | 0.009 | 1.07 | 0.331 | 0.903 | – | – | –
13 | O=C(N[C@H]1CC[C@H](CN2CC(F)C2)CC1)c1n[nH]c2ccc(-c3cnn4c3CCCC4)cc12 [Compound 27, N-((1R,4R)-4-((3-Fluoroazetidin-1-yl)methyl)cyclohexyl)-5-(4,5,6,7-tetrahydropyrazolo[1,5-a]pyridin-3-yl)-1H-indazole-3-carboxamide] | 0.677 | 0.004 | 0.012 | 6.45 | 0.346 | 3.82 | – | – | –
14 | O=C(Nc1ccc(N2CCCC2)nc1)c1n[nH]c2ccc(-c3cnn(C4CCNCC4)c3)cc12 [Compound 93, 5-(1-(Piperidin-4-yl)-1H-pyrazol-4-yl)-N-(6-(pyrrolidin-1-yl)pyridin-3-yl)-1H-indazole-3-carboxamide] | 1.59 | 0.006 | 0.43 | 0.823 | 1.2 | > 10 | 5.5 | – | –
15 | CN1CCC(Oc2ccc(NC(=O)c3n[nH]c4cc(F)c(-c5cnn(C(F)F)c5)cc34)cc2)CC1 [Compound 80, 5-(1-(Difluoromethyl)-1H-pyrazol-4-yl)-6-fluoro-N-(4-((1-methylpiperidin-4-yl)oxy)phenyl)-1H-indazole-3-carboxamide] | 8.52 | 0.019 | 0.783 | 5 | 1.3 | 3.44 | – | – | –
16 | O=C(Nc1ccc(N2CCCC2)nc1)c1n[nH]c2ccc(-c3cnn(C4CC4)c3)cc12 [Compound 91, 5-(1-Cyclopropyl-1H-pyrazol-4-yl)-N-(6-(pyrrolidin-1-yl)pyridin-3-yl)-1H-indazole-3-carboxamide] | 1.13 | 0.05 | 0.332 | 2.1 | 1.49 | > 10 | 53.6 | – | –
17 | CN1[C@@H]2CC[C@H]1CC(NC(=O)c1n[nH]c3ccc(-c4cnn(C)c4)cc13)C2 (stereo partly drawn) [Compound 146, 5-(1-Methyl-1H-pyrazol-4-yl)-N-((1R,5S)-8-methyl-8-azabicyclo [3.2.1]octan-3-yl)-1H-indazole-3-carboxamide] | 1.58 | – | – | > 10 | > 10 | > 10 | 4.7 | > 100 | (35.9%)
18 | O=C(Nc1ccc(OC(F)F)cc1)c1n[nH]c2ccc(-c3cnn(C4CCNCC4)c3)cc12 [Compound 55, N-(4-(Difluoromethoxy)phenyl)-5-(1-(piperidin-4-yl)-1H-pyrazol-4-yl)-1H-indazole-3-carboxamide] | 0.428 | 0.037 | 1.23 | 1.34 | 0.236 | 3.85 | – | – | –
